Experimental data taken from ChEMBL document CHEMBL1201862, “PubChem BioAssay data set” (2004).
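Five concentrations, 48 hours, 96-well plates. The concentration for 50% growth inhibition is given as GI50.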 The source made the active and inactive calls. Rule as the data show it: active = GI50 up to about 1.1 µM and inactive = higher.

Tests used:
Assay in all cases: inhibition of tumour cell growth, NCI panel, 48 h
ACHN = test system: ACHN
CCRF-CEM = test system: CCRF-CEM
NCI-H522 = test system: NCI-H522
HT-29 = test system: HT-29
HOP-62 = test system: HOP-62
SF-295 = test system: SF-295
T47D = test system: T47D
OVCAR-8 = test system: OVCAR-8
OVCAR-4 = test system: OVCAR-4
SK-MEL-5 = test system: SK-MEL-5
MOLT-4 = test system: MOLT-4
IGROV-1 = test system: IGROV-1
HL-60 = test system: HL-60
OVCAR-3 = test system: OVCAR-3
SK-MEL-2 = test system: SK-MEL-2
CAKI-1 = test system: CAKI-1
Malme-3M = test system: Malme-3M
DU-145 = test system: DU-145
COLO 205 = test system: COLO 205
SR = test system: SR

Measured: GI50

[N-]=[N+]=NC(c1ccccc1)(c1ccccc1)c1ccccc1
inactive: ACHN 15.7 µM | CCRF-CEM 19.1 µM | NCI-H522 16.5 µM | HT-29 16 µM | HOP-62 19.5 µM | SF-295 12.1 µM | T47D 16 µM | OVCAR-8 17.3 µM | OVCAR-4 20.3 µM | SK-MEL-5 13.8 µM | MOLT-4 16.1 µM | IGROV-1 25 µM | HL-60 17.2 µM | OVCAR-3 20.4 µM | SK-MEL-2 15.5 µM | CAKI-1 17.4 µM | Malme-3M 14.6 µM | DU-145 17.3 µM | COLO 205 14.6 µM

CCOC(=O)Cn1c(=O)c2nc(SC)sc2n(-c2ccccc2)c1=S
inactive: ACHN 13.9 µM | CCRF-CEM > 100 µM | NCI-H522 68.1 µM | HT-29 > 100 µM | HOP-62 19.9 µM | SF-295 32.5 µM | T47D 40.8 µM | OVCAR-8 43.9 µM | OVCAR-4 15.3 µM | SR > 100 µM | SK-MEL-5 > 100 µM | MOLT-4 > 100 µM | IGROV-1 3.05 µM | HL-60 32.3 µM | OVCAR-3 26.6 µM | SK-MEL-2 17.5 µM | Malme-3M 18.8 µM | DU-145 > 100 µM | COLO 205 42.1 µM

COC(=O)[C@H]1C[C@H]1NC(=O)C(CC(=O)OCc1ccccc1)NC(=O)OCc1ccccc1 (stereo not given in full)
inactive: ACHN 36.8 µM | CCRF-CEM 31.6 µM | NCI-H522 40.8 µM | HT-29 39 µM | HOP-62 > 10 µM | SF-295 50.7 µM | T47D 11.9 µM | OVCAR-8 40 µM | SR 29.8 µM | SK-MEL-5 25.4 µM | MOLT-4 29.2 µM | IGROV-1 52.1 µM | HL-60 17.9 µM | SK-MEL-2 18.6 µM | DU-145 73.5 µM | COLO 205 24.4 µM

O=c1[nH]c(NCc2cccnc2)nc2[nH]cnc12
inactive: ACHN > 100 µM | CCRF-CEM > 100 µM | NCI-H522 41.4 µM | HT-29 > 100 µM | HOP-62 > 100 µM | SF-295 > 100 µM | T47D > 100 µM | OVCAR-8 > 100 µM | OVCAR-4 > 100 µM | SK-MEL-5 > 100 µM | MOLT-4 > 100 µM | IGROV-1 > 100 µM | OVCAR-3 > 100 µM | SK-MEL-2 > 100 µM | CAKI-1 > 100 µM | Malme-3M > 100 µM | DU-145 > 100 µM | COLO 205 > 100 µM

CN(C)CCCN1c2ccccc2CCc2cc([N+](=O)[O-])ccc21
inactive: ACHN 16.3 µM | NCI-H522 15.7 µM | HT-29 15.3 µM | HOP-62 15.8 µM | SF-295 14.5 µM | T47D 17.1 µM | OVCAR-8 15.7 µM | OVCAR-4 17.7 µM | SR 18.7 µM | SK-MEL-5 12.9 µM | MOLT-4 15.8 µM | IGROV-1 15.6 µM | OVCAR-3 17.9 µM | SK-MEL-2 20 µM | CAKI-1 15.5 µM | Malme-3M 17.7 µM | DU-145 18.2 µM | COLO 205 16.4 µM

CCn1c(CCl)nc2c1C(=O)c1ccccc1C2=O
inactive: ACHN 3.72 µM | HT-29 1.78 µM | HOP-62 2.42 µM | SF-295 1.88 µM | T47D 1.95 µM | OVCAR-8 1.58 µM | OVCAR-4 1.66 µM | IGROV-1 1.7 µM | HL-60 2.43 µM | OVCAR-3 1.69 µM | DU-145 2.67 µM
active: CCRF-CEM 0.171 µM | NCI-H522 0.292 µM | SR 0.401 µM | SK-MEL-5 0.42 µM | MOLT-4 0.356 µM | Malme-3M 1.04 µM

CC1(C)CCC(C)(C)C1C(=O)NC(O)C(=O)O (stereo not given)
inactive: ACHN > 100 µM | CCRF-CEM > 100 µM | HOP-62 > 100 µM | T47D > 100 µM | OVCAR-8 > 100 µM | SR > 100 µM | SK-MEL-5 > 100 µM | MOLT-4 > 100 µM | IGROV-1 > 100 µM | HL-60 > 100 µM | SK-MEL-2 > 100 µM | DU-145 > 100 µM | COLO 205 > 100 µM

C=C1C[C@H](O)[C@H]2C(C[Se]c3ccccc3)C(=O)O[C@@H]2[C@H]2[C@H](C)C(O)C[C@@H]12 (stereo not given in full)
inactive: ACHN 27.9 µM | CCRF-CEM 24.8 µM | NCI-H522 17.5 µM | HT-29 46.1 µM | HOP-62 > 100 µM | SF-295 75.9 µM | T47D 28.3 µM | OVCAR-8 41.8 µM | OVCAR-4 38.1 µM | SR 23.4 µM | SK-MEL-5 33.6 µM | MOLT-4 31.6 µM | IGROV-1 25.3 µM | OVCAR-3 24.4 µM | SK-MEL-2 66.2 µM | CAKI-1 71.6 µM | Malme-3M 40.6 µM | DU-145 44.2 µM | COLO 205 50.7 µM

CC1(C)OCC2OC3([C@@H]4OC(C)(C)O[C@H]4CO)OC(C)(C)OC3C2O1 (stereo not given in full)
inactive: ACHN > 100 µM | CCRF-CEM > 100 µM | HOP-62 > 100 µM | SF-295 > 100 µM | T47D > 100 µM | OVCAR-8 > 100 µM | OVCAR-4 > 100 µM | SR > 100 µM | SK-MEL-5 > 100 µM | MOLT-4 > 100 µM | IGROV-1 > 100 µM | OVCAR-3 > 100 µM | SK-MEL-2 > 100 µM | CAKI-1 > 100 µM | DU-145 > 100 µM | COLO 205 > 100 µM

COC(=O)[C@@]1(Cc2ccc(O)cc2)C[C@@H]2Cc3ccccc3N2N1
inactive: ACHN > 100 µM | NCI-H522 58.2 µM | HT-29 35.5 µM | HOP-62 > 100 µM | SF-295 49.1 µM | T47D 23.5 µM | OVCAR-8 71.8 µM | OVCAR-4 > 100 µM | SR 31.3 µM | SK-MEL-5 34.5 µM | MOLT-4 4.8 µM | IGROV-1 78 µM | OVCAR-3 > 100 µM | SK-MEL-2 25.4 µM | CAKI-1 > 100 µM | Malme-3M 49 µM | DU-145 > 100 µM | COLO 205 79.1 µM

O=C(Cn1c2ccc(Br)cc2c2nc3ccccc3nc21)NNC(=O)NC1CCCCC1
inactive: ACHN > 100 µM | CCRF-CEM 26.7 µM | NCI-H522 72.8 µM | HOP-62 27.7 µM | SF-295 34.3 µM | T47D 33 µM | OVCAR-8 35.9 µM | OVCAR-4 13.8 µM | SR 31 µM | SK-MEL-5 > 100 µM | MOLT-4 25.2 µM | OVCAR-3 63.5 µM | SK-MEL-2 > 100 µM | CAKI-1 30.3 µM | Malme-3M 52.2 µM | DU-145 24.9 µM | COLO 205 86.9 µM

CSc1c(C(=O)Nc2ccccc2)c(N)nn1-c1ccccc1
inactive: CCRF-CEM > 100 µM | HT-29 > 100 µM | T47D > 100 µM | OVCAR-8 > 100 µM | OVCAR-4 > 100 µM | SR > 100 µM | SK-MEL-5 > 100 µM | MOLT-4 > 100 µM | HL-60 > 100 µM | OVCAR-3 > 100 µM | SK-MEL-2 > 100 µM | CAKI-1 > 100 µM | Malme-3M > 100 µM | DU-145 > 100 µM | COLO 205 > 100 µM

O=C1C=CN(C2OC(CO)C(O)C2O)C(=O)C1 (stereo not given)
inactive: ACHN 39.2 µM | CCRF-CEM 6.87 µM | HT-29 32.3 µM | HOP-62 36.3 µM | T47D 173 µM | SR 5.42 µM | MOLT-4 8.34 µM | IGROV-1 223 µM | HL-60 9.46 µM | OVCAR-3 692 µM | CAKI-1 22.3 µM | DU-145 9.38 µM | COLO 205 27.1 µM

CCOc1cc2c(=O)oc3c(OC)ccc4ccc(c1OC)c2c43
inactive: ACHN 37.4 µM | CCRF-CEM > 100 µM | NCI-H522 16.7 µM | HT-29 97.5 µM | HOP-62 46.5 µM | SF-295 96.8 µM | T47D > 100 µM | OVCAR-8 25.2 µM | OVCAR-4 58.7 µM | SK-MEL-5 > 100 µM | MOLT-4 > 100 µM | IGROV-1 > 100 µM | HL-60 > 100 µM | OVCAR-3 > 100 µM | SK-MEL-2 > 100 µM | CAKI-1 > 100 µM | Malme-3M > 100 µM | DU-145 > 100 µM | COLO 205 > 100 µM

Cc1c(-c2ccccc2)[nH]n(C2=NCCN2)c1=O
inactive: ACHN > 100 µM | CCRF-CEM > 100 µM | NCI-H522 > 100 µM | HT-29 46.3 µM | HOP-62 > 100 µM | SF-295 > 100 µM | T47D > 100 µM | OVCAR-8 > 100 µM | OVCAR-4 > 100 µM | SR > 100 µM | SK-MEL-5 > 100 µM | MOLT-4 > 100 µM | IGROV-1 67.8 µM | HL-60 88.5 µM | OVCAR-3 > 100 µM | SK-MEL-2 > 100 µM | CAKI-1 > 100 µM | Malme-3M 41 µM | COLO 205 > 100 µM

CC(=O)OC(C)(C)/C=C/C(=O)[C@](C)(O)[C@H]1[C@H](O)C[C@@]2(C)[C@@H]3CC=C4[C@@H](C=C(O)C(=O)C4(C)C)[C@]3(C)C(=O)C[C@]12C [CUCURBITACIN E]
active: ACHN 0.0179 µM | CCRF-CEM 0.0298 µM | NCI-H522 0.0407 µM | HT-29 0.0202 µM | HOP-62 0.0408 µM | SF-295 0.0348 µM | T47D 0.217 µM | OVCAR-8 0.166 µM | OVCAR-4 0.0305 µM | SK-MEL-5 0.0406 µM | MOLT-4 0.246 µM | IGROV-1 0.0366 µM | HL-60 0.0313 µM | OVCAR-3 0.0459 µM | SK-MEL-2 0.0139 µM | CAKI-1 0.0216 µM | Malme-3M 0.0366 µM | DU-145 0.0262 µM | COLO 205 0.0191 µM
